{"source": "patent US7235263B2", "about": "“Processes for controlling microbial organic compound production” (Kimberly-Clark Worldwide, Inc., priority 2001, dated 2007)", "key": {"[1]": {"test_system": "interleukin-1 alpha (IL-1a)", "assay": "IL-1a release by EPIOCULAR skin culture challenged with sample", "format": "cell-based, human", "conditions": "Table 5, 6 hours", "source_text": "In order to evaluate the amount of skin irritation by various samples prepared in the Examples, a human skin culture was selected to model the response of the human epidermis to treated and untreated bacterial metabolized urine:TSB mixture. The tissue model selected was an EPIOCULAR Tissue Model (OCL-200 propagated without hydrocortisone), and was purchased from MatTek Corporation (Ashland, Mass.). This model consists of normal, human-derived epidermal keratinocytes, which have been cultured to form a stratified, squamous epithelium similar to that found in the cornea. The epidermal cells, which are cultured on specially prepared cell culture inserts using a serum free medium, differentiate to form a multi-layered structures which closely parallel the corneal epithelium. Experiments using this skin culture were conducted in six parallel wells. Each well contained one milliliter of pre-warmed media that was the same as the model skin culture media. The plates were then incubated in a 37° C., 5% carbon dioxide atmosphere for thirty minutes. […] The response of the skin culture to test the compositions/control and the insult solution is determined by measuring the amount of interleukin-1 alpha (IL-1a) and/or interleukin-8 (IL-8). IL-1a and IL-8 were quantified using an Interleukin-1 alpha or Interleukin-8 Quantikine Kit available from R&D Systems (Minneapolis, Minn.)."}, "E. coli (ATCC 8739) [2]": {"test_system": "E. coli (ATCC 8739)", "assay": "Bacterial yield of facultatively grown E. coli in urine:TSB", "format": "cell-based", "conditions": "Table 6, facultative E. coli in urine:TSB", "experimental": "Proteus mirabilis (ATCC 29906) were recovered from frozen state by growing the appropriate bacterial coated MicroBank Bead (Pro Lab, Austin Tex.) in 10 mL trypticase soy broth (TSB, Difco, Ann Arbor, Mich.) in a 15 mL sterile loosely tightened screw capped conical tube overnight at 37° C. The tube was held stationary. (E. coli (ATCC 8739), utilized in Example 6 herein, was recovered using the same procedure described herein for Proteus mirabilis). Upon observation of turbidity, the bacterial suspension was checked for purity by isolation plate and Gram stain. Once determined that the isolate was Proteus mirabilis (or E. coli in Example 6), a colony from the isolation plate was transferred to 10 mL of TSB in a 15 mL sterile screw capped conical tube and incubated overnight at 37° C. under facultative conditions. Samples of bacterial suspension resulting from this overnight TSB culture were used to initiate all experiments utilizing Proteus mirabilis bacteria (or E. coli in Example 6).\nThe four samples were prepared identically to the four samples in Example 5 with the exception that facultatively grown E. coli was utilized as the bacteria in place of the Proteus mirabilis bacteria. The process for growing facultatively grown E. coli is set forth in Example 1.\nAfter incubation, each sample was analyzed for EPIOCULAR viability and bacterial cell count as set forth in Example 1. […]"}, "E. coli (ATCC 8739) [3]": {"test_system": "E. coli (ATCC 8739)", "assay": "Ammonia in urine:TSB with facultatively grown E. coli", "format": "cell-based", "conditions": "Table 6, facultative E. coli", "experimental": "Upon completion of the respective incubation periods of the samples, optical density measurements of each sample were taken as described above and ammonia production of the growth solutions was measured using an ammonia combination probe (Beckman, Fullerton, Calif.) by record mV using an Orion pH meter (Orion, Boston, Mass.). Orion ammonia standards (Orion) were used to calibrate the instrument. The four samples were prepared identically to the four samples in Example 5 with the exception that facultatively grown E. coli was utilized as the bacteria in place of the Proteus mirabilis bacteria. The process for growing facultatively grown E. coli is set forth in Example 1."}, "[4]": {"test_system": "Proteus mirabilis (ATCC 29906)", "assay": "Ammonia production by facultatively grown Proteus mirabilis in urine:TSB (ammonia probe)", "format": "cell-based", "conditions": "for % Reduction of Ammonia: vs urine:TSB:facultative without mannitol peroxide", "experimental": "Proteus mirabilis was taken from a TSB culture (described in (1) above) and grown under various conditions for use in the Examples. For bacteria to be grown under aerobic conditions, 50 microliters of Proteus mirabilis was taken from a TSB culture prepared as described above and inoculated into a 50 mL volume of a freshly made 9:1 (by volume) pooled adult female urine:TSB mixture into a 250 mL shake flask. This mixture was rotated at 250 rpm at 37° C. overnight to grow the bacteria. For bacteria to be grown under facultative conditions, 10 microliters of Proteus mirabilis was taken from a TSB culture prepared as described above and inoculated into a 10 mL volume of a freshly made 9:1 (by volume) pooled adult female urine:TSB mixture into a 15 mL tube. The tube was loosely fitted with a screw cap, and held stationary at 37° C. overnight to grow the bacteria. For bacteria to be grown under anaerobic conditions, 10 microliters of Proteus mirabilis was taken from a TSB culture prepared as described above and inoculated into a 10 mL volume of a freshly made 9:1 (by volume) pooled adult female urine:TSB mixture into a 15 mL conical tube. The tube was purged with nitrogen and a screw cap tightly closed, and then was held stationary overnight at 37° C. to grow the bacteria.\nUpon completion of the respective incubation periods of the samples, optical density measurements of each sample were taken as described above and ammonia production of the growth solutions was measured using an ammonia combination probe (Beckman, Fullerton, Calif.) by record mV using an Orion pH meter (Orion, Boston, Mass.). Orion ammonia standards (Orion) were used to calibrate the instrument.\nIn this Example, six different samples were prepared for analysis. The first sample comprised a urine:TSB mixture that was prepared in the same manner as that described in Example 1. […] The tube was loosely fitted with a screw cap, and held stationary at 37° C. overnight to grow the bacteria. […] The fifth sample comprising urine:TSB:Proteus mirabilis (facultatively grown) was prepared in the same manner as that described in Example 1."}, "interleukin-8 (IL-8)": {"test_system": "interleukin-8 (IL-8)", "assay": "IL-8 release by EPIOCULAR skin culture challenged with sample", "format": "cell-based, human", "conditions": "for IL-8: Table 5, 6 hours; for IL-8 (n = 3): Table 6", "source_text": "In order to evaluate the amount of skin irritation by various samples prepared in the Examples, a human skin culture was selected to model the response of the human epidermis to treated and untreated bacterial metabolized urine:TSB mixture. The tissue model selected was an EPIOCULAR Tissue Model (OCL-200 propagated without hydrocortisone), and was purchased from MatTek Corporation (Ashland, Mass.). This model consists of normal, human-derived epidermal keratinocytes, which have been cultured to form a stratified, squamous epithelium similar to that found in the cornea. The epidermal cells, which are cultured on specially prepared cell culture inserts using a serum free medium, differentiate to form a multi-layered structures which closely parallel the corneal epithelium. Experiments using this skin culture were conducted in six parallel wells. Each well contained one milliliter of pre-warmed media that was the same as the model skin culture media. The plates were then incubated in a 37° C., 5% carbon dioxide atmosphere for thirty minutes. After incubation, 25 microliters of the sample were applied to the surface of the model skin culture after removing any residual media. After application of the test solution, the well plates were incubate for 6 hours in the 37° C., 5% carbon dioxide atmosphere. At the end of 6 hours, the well plates were removed from the incubator and the underlying media removed and stored at −80° C. The response of the skin culture to test the compositions/control and the insult solution is determined by measuring the amount of interleukin-1 alpha (IL-1a) and/or interleukin-8 (IL-8). IL-1a and IL-8 were quantified using an Interleukin-1 alpha or Interleukin-8 Quantikine Kit available from R&D Systems (Minneapolis, Minn.)."}, "[5]": {"conditions": "facultative Proteus mirabilis grown with 5% mannitol peroxide"}, "[6]": {"conditions": "facultative Proteus mirabilis grown with 10% mannitol peroxide"}, "[7]": {"conditions": "Table 4, 5% mannitol peroxide, facultative"}, "[8]": {"conditions": "Table 4, 10% mannitol peroxide, facultative"}, "[9]": {"conditions": "Table 7, 5% mannitol peroxide, facultative"}}}
{"substance": "mannitol peroxide", "values": [{"measurement": "IL-1a", "setting": "[1]; [5]", "value": "48.12 ± 8.93", "unit": "pg/mL"}, {"measurement": "IL-1a", "setting": "[1]; [6]", "value": "15.26 ± 12.80", "unit": "pg/mL"}, {"measurement": "Bacterial Yields", "setting": "E. coli (ATCC 8739) [2]; 5% MP", "value": "2.14E+9", "unit": "CFU/mL"}, {"measurement": "Bacterial Yields", "setting": "E. coli (ATCC 8739) [2]; 10% MP", "value": "4.98E+9", "unit": "CFU/mL"}, {"measurement": "Ammonia", "setting": "E. coli (ATCC 8739) [3]; 5% MP", "value": 12.46, "unit": "ppm"}, {"measurement": "Ammonia", "setting": "E. coli (ATCC 8739) [3]; 10% MP", "value": 14.04, "unit": "ppm"}, {"measurement": "Ammonia/Cell", "setting": "[4]; Table 3, 5% (w/v) mannitol peroxide, facultative bacteria", "value": 1.6, "unit": "ppm/CFU E+8"}, {"measurement": "Ammonia Produced (n = 3)", "setting": "[4]; Table 3, 5% (w/v) mannitol peroxide, urine:TSB, facultative bacteria", "value": "34.5 ± 12.6", "unit": "ppm"}, {"measurement": "Ammonia/Cell", "setting": "[4]; Table 3, 10% mannitol peroxide, facultative bacteria", "value": 0.01, "unit": "ppm/CFU E+8"}, {"measurement": "Ammonia Produced (n = 3)", "setting": "[4]; Table 3, 10% mannitol peroxide, urine:TSB, facultative bacteria", "value": "13.9 ± 0.3", "unit": "ppm"}, {"measurement": "Ammonia (n = 3)", "setting": "[4]; [7]", "value": "34.5 ± 12.6", "unit": "ppm"}, {"measurement": "Ammonia/Cell", "setting": "[4]; [7]", "value": 1.6, "unit": "ppm/CFU E+8"}, {"measurement": "% Reduction of Ammonia", "setting": "[4]; Table 4, 5% mannitol peroxide", "value": 53.6, "unit": "%"}, {"measurement": "Ammonia (n = 3)", "setting": "[4]; [8]", "value": "13.9 ± 0.3", "unit": "ppm"}, {"measurement": "Ammonia/Cell", "setting": "[4]; [8]", "value": 0.01, "unit": "ppm/CFU E+8"}, {"measurement": "% Reduction of Ammonia", "setting": "[4]; Table 4, 10% mannitol peroxide", "value": 98.5, "unit": "%"}, {"measurement": "Ammonia Produced (n = 3)", "setting": "[4]; [9]", "value": "434.5 ± 7.5", "unit": "ppm"}, {"measurement": "Ammonia/Cell", "setting": "[4]; [9]", "value": 43.84, "unit": "ppm/10E8CFU"}, {"measurement": "IL-8", "setting": "interleukin-8 (IL-8); [5]", "value": "27224.30 ± 2432.83", "unit": "pg/mL"}, {"measurement": "IL-8", "setting": "interleukin-8 (IL-8); [6]", "value": "15884.57 ± 839.53", "unit": "pg/mL"}, {"measurement": "IL-8 (n = 3)", "setting": "interleukin-8 (IL-8); facultative E. coli grown with 5% MP", "value": "1769.31 ± 103.9", "unit": "pg/mL"}, {"measurement": "IL-8 (n = 3)", "setting": "interleukin-8 (IL-8); facultative E. coli grown with 10% MP", "value": "1336.69 ± 60.84", "unit": "pg/mL"}]}
